Data set [1] deals with collagen-induced thrombocyte aggregation in platelet-rich plasma. Put plainly: Antithrombotic activity: collagen-induced thrombocyte aggregation (Born and Cross). It counts as cell-based, human (healthy volunteers). The note with it: Homo sapiens, 10 min, 10 min incubation at 37° C. How it is done:
The thrombocyte aggregation is measured using the Born and Cross method (J. Physiol. 170: 397 (1964)) in platelet-rich plasma taken from healthy volunteers. To inhibit coagulation the blood is mixed with 3.14% sodium citrate in a ratio by volume of 1:10.
The pattern of the decrease in optical density of the platelet suspension is photometrically measured and recorded after the addition of aggregation-triggering substance. The rate of aggregation is concluded from the angle of inclination of the density curve. The point on the curve where there is maximum light transmittance is used to calculate the optical density.
The amount of collagen used is as small as possible but sufficient to produce an irreversible reaction curve. Standard commercial collagen produced by Hormonchemie of Munich is used. Before the addition of the collagen the plasma is incubated for 10 minutes with the substance at 37° C.
From the measurements obtained an EC50 is determined graphically, indicating a 50% change in the optical density in terms of the inhibition of aggregation.

Data set [2] deals with T1, thromboxane (Homo sapiens, UniProt P21731).
T1 construct: endogenous in cells; host or cells: washed human platelets (platelet-rich plasma passed through Sepharose 2B)
T1 sequence (P21731 1-343): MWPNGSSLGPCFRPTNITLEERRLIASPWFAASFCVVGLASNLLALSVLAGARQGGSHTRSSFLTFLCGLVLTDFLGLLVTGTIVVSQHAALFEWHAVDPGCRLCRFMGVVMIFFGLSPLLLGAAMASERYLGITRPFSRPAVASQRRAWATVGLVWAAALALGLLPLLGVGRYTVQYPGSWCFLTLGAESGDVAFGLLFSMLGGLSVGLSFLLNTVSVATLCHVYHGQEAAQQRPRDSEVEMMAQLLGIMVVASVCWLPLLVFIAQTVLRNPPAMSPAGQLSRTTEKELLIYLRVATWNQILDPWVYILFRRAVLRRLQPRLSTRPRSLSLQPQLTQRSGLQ
Put plainly: Thromboxane-antagonistic activity: displacement of 3H-labelled ligand on washed human platelets. It is filed as binding. The note with it: displacement of 3H-ligand, human platelet suspension, 60 min ambient temperature. How it is done:
Venous human blood is anti-coagulated with 13 mM Na3 citrate and centrifuged for 10 minutes at 170×g. The supernatant platelet-rich plasma is passed through a Sepharose 2B column in order to remove the plasma proteins. Aliquots of the platelet suspension obtained are incubated with the test substance, the ligand (^3 H-labelled) and a marker ([…]) for 60 minutes at ambient temperature and then centrifuged for 20 seconds at 10,000×g. The supernatant is removed and the pellet is dissolved in NaOH. The ^3 H activity in the supernatant corresponds to the free ligand, ^14 C gives the concentration of the marker. ^3 H in the pellet corresponds to the bound ligand whilst ^14 C is used to correct for the ligand in the extracellular space. After the process has been repeated, the displacement curve is determined from the binding values for different concentrations of the test substance and the IC50 is determined.
A general note: In a radioligand displacement assay an active substance lowers the binding of a labelled ligand.

Data set [3] concerns mice. Put plainly: Acute toxicity, oral, mice. It counts as in vivo, mouse. The note with it: observation period 14 days; for animals died: 250 mg/kg single oral dose; for Approximate acute toxicity: single oral dose. How it is done: The acute toxicity of the test substances was determined as a guide on groups of 10 mice after oral administration of a single dose (observation period: 14 days): […]

Data set [4] has as its target T2, thromboxane synthetase (Homo sapiens, UniProt P24557).
T2 construct: endogenous in cells; host or cells: washed human platelets (platelet-rich plasma passed through Sepharose 2B)
T2 sequence (P24557 1-533): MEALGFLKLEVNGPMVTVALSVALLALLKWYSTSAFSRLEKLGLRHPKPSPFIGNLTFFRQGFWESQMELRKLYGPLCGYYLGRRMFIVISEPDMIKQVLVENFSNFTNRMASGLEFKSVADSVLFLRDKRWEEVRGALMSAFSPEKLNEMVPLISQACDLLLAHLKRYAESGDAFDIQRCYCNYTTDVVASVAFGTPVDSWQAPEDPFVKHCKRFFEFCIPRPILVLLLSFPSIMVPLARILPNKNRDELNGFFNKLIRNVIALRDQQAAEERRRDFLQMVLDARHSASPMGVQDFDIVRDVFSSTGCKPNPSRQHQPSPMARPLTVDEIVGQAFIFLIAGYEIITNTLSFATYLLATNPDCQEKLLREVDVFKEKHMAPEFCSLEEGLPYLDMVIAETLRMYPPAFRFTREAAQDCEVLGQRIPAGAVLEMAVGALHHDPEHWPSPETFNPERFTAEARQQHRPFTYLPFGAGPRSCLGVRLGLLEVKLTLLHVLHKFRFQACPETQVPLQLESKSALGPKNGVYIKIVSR
As to the kind of experiment: Inhibitory effect on thromboxane synthetase (TXB2 formation from arachidonic acid in human platelets). It is filed as biochemical. The note with it: inhibition of TXB2 formation, human platelet suspension, 14C-arachidonic acid. The procedure: Venous human blood is anti-coagulated with 13 mM Na3 citrate and centrifuged for 10 minutes at 170×g. The supernatant platelet-rich plasma is passed through a Sepharose 2B column in order to remove the plasma proteins. Aliquots of the platelet suspension obtained are incubated with the test substance or with a solvent as control for 10 minutes at ambient temperature and after the addition of ^14 C-labelled arachidonic acid incubation is continued for a further 10 minutes. After this has been stopped with 50 μl of citric acid, extraction is carried out 3× with 500 μl of ethyl acetate and the combined extracts are distilled off with nitrogen. The residue is taken up in ethyl acetate, placed on TLC film and separated with chloroform:methanol:glacial acetic acid:water (90:8:1:0.8, v/v/v/v). The dried TLC films are placed on X-ray film for 3 days, the autoradiograms were developed and the active zones were marked on the film using the autoradiograms. After cutting out, the activity is measured in a scintillation counter and the inhibition of the formation of TXB2 is calculated. The IC50 is determined by linear interpolation.

For data set [5], the system named is production of thromboxane and PGE2 in an isolated lung. Put plainly: Effect on production of thromboxane and PGE2 in an isolated lung. The arrangement: species or system guinea-pig. The procedure: Guinea-pigs are killed by a blow to the neck, the lungs are rapidly removed and washed with a tyrode solution through the pulmonary artery. The lung is perfused with the same solution (0.5 ml/min.) and ventilated under negative pressure (frequency: 52 breaths per minute, maximum pressure -20 cm H2 O). A 0.1 ml bolus of bradykinin (0.2 μM) is injected via the pulmonary arteria on two occasions, with approximately 60 minutes between boli. From 30 minutes before the second bradykinin injection 1 μM of substance B is continually added to the lung perfusate. The control lungs are perfused without the added substance. The perfusate is collected for 2 minutes be administration of bradykinin and 10 minutes thereafter. The samples are left to stand for 20 minutes at ambient temperature (conversion of thromboxane A2 into B2) and are then frozen at -20° C.
The concentrations of thromboxane B2 and PGE2 are determined by radioimmunoassay.

The test system of data set [6] is bronchospasm induced by arachidonic acid. As to the kind of experiment: Inhibition of bronchospasm induced by arachidonic acid. It is filed as in vivo, guinea-pig. To be noted: Cavia porcellus, iv; guinea-pigs, injected 10 min before arachidonic acid (0.5-2.0 mg/kg i.v.); graphical extrapolation. The procedure: Guinea-pigs anaesthetised with ethyl urethane and ventilated artificially under pressure limitation are intravenously injected with arachidonic acid (a thromboxane precursor) and the consequent bronchospasms are recorded using a modified form of the method of Konzett and Rossler. The doses of arachidonic acid (0.5-2.0 mg/kg) are selected so as to give a 60% reduction in tidal volume. Increasing doses of test substance B are injected 10 minutes before the arachidonic acid. The percentage inhibition of reduction in tidal volume is determined by comparison of the maximum reduction after the administration of arachidonic acid and the corresponding value after pretreatment with the test substance.

Data set [7] concerns lethal effects of endotoxin (E. coli 0111:B4 lipopolysaccharide). Put plainly: Inhibition of the lethal effects of endotoxin. It counts as in vivo, rat (male Sprague-Dawley). How it is done:
Male Sprague-Dawley rate are primed by intravenous injection with 0.1 mg/kg of endotoxin (a lipopolysaccharide from E. coli 0111:B4) one week before the main study. In the main study, a potentially lethal dose of E. coli (40 mg/kg) is injected intravenously and the subsequent mortality recorded over an observation period of seven days.
The test animals are given test substance B as a suspension in 0.5% tylose by oral route one hour before and 4, 8, 24 and 48 hours after the second injection of endotoxin.

Setting [8] is: 1 mg/kg oral at each dosage time point (1 h before, 4, 8, 24, 48 h after endotoxin).
The mark [9] stands for this setting: 10 mg/kg oral at each dosage time point (1 h before, 4, 8, 24, 48 h after endotoxin).

Where “and” joins values, the source holds several entries; their conditions need not be identical. Equal values may be shown once.

On to `Cc1ccc(S(=O)(=O)NC2Cc3ccc(C(=CCCCC(=O)O)c4cccnc4)cc3C2)cc1` (stereo not shown) [A], for which the EC50 (commonly the midpoint of the concentration-response curve) in data set [1] is 0.3 µM. Also, the values for the IC50 in data set [2] and in data set [4] were 0.023 µM and 0.003 µM, respectively. For the same compound, the animals died in data set [3] is 0 out of 10. Moreover, the Approximate acute toxicity in data set [3] came to 250 mg/kg.
The compound `O=C(O)CCCC=C(c1ccc(CCNS(=O)(=O)c2ccc(Cl)cc2)cc1)c1cccnc1` [B] yielded an EC50 in data set [1] of 0.15 µM. In addition, in data set [2], the IC50 (as a rule, the point on the concentration scale where inhibition reaches its midpoint) turned out to be 0.02 µM. In addition, in data set [5] (1 μM in lung perfusate), the “effect on formation of PGE2 (in words)” value was “promoting the formation of PGE2” and the “effect on thromboxane production (in words)” value was “hinders thromboxane production”. The “Ratio of mediator release after 2nd / after 1st administration of bradykinin: Thromboxane B2” value in data set [5] (1 μM in perfusate at time of 2nd bradykinin, individual values, control 1.18, 0.50, 0.84) was found to be 0.0. Also, in data set [5] (1 μM in perfusate at time of 2nd bradykinin, individual values, control 1.28, 1.12, 1.09), the “Ratio of mediator release after 2nd / after 1st administration of bradykinin: PGE2” value was 5.08 and 2.23. Moreover, in data set [3], the animals died is recorded as 0 out of 10 and the Approximate acute toxicity came to 250 mg/kg. Besides, the ED50 (in general, the midpoint of the dose-response relation) in data set [6] was 8.1 µg/kg. Half-maximal inhibition in data set [4] (IC50) was put at 0.0008 µM. Also, in data set [7] (setting [8]), the “Rats alive/total after 2 days” value was 7/10 and the “Rats alive/total after 7 days” value is 6/10. In addition, in data set [7] (setting [9]), the “Rats alive/total after 2 days” value is on record as 8/10 and the “Rats alive/total after 7 days” value was 5/10.
In data set [1], `O=C(O)CCCCC(c1cccnc1)c1ccc2c(c1)CC(NS(=O)(=O)c1ccc(Cl)cc1)C2` (stereo not shown) [C] displayed an EC50 of 0.3 µM. In data set [2], this compound displayed an IC50 of 0.08 µM. Further, in data set [3], the animals died is 0 out of 10 and the Approximate acute toxicity stood at 250 mg/kg. The same compound gave an IC50 in data set [4] of 0.003 µM.
Consider `O=C(O)CCCCC(c1ccc(CCNS(=O)(=O)c2ccc(Cl)cc2)cc1)c1cccnc1` (stereo not shown) [D], for which the 50% effective concentration (EC50) in data set [1] stood at 1.2 µM. The IC50 worked out at 0.08 µM in data set [2] and 0.001 µM in data set [4]. Also, in data set [3], the animals died is given as 0 out of 10. Also, the Approximate acute toxicity in data set [3] is reported as 250 mg/kg.
The compound `O=C(O)CCCC=C(c1ccc(CCNS(=O)(=O)c2ccc(C(F)(F)F)cc2)cc1)c1cccnc1` [E] registered an EC50 in data set [1] of 0.1 µM. In data set [2], this compound yielded an IC50 of 0.028 µM. Besides, in data set [3], the animals died is listed as 0 out of 10 and the Approximate acute toxicity was 250 mg/kg. Besides, 0.006 µM corresponded to half-maximal inhibition in data set [4] (IC50).

These data come from patent US5681961A, “Arylsulphonamides, pharmaceutical compositions containing these compounds and processes for preparing them” (Dr. Karl Thomae GmbH, priority 1989, dated 1997).
